According to patent US20100263095A1, “METHOD FOR GROWING SUGARCANE” (SYNGENTA CROP PROTECTION, INC., priority 2007, published 2010):

Columns and labels:
[1] = tested on: sugar cane Variety RB 86-7515; experiment: Greenhouse pot test: effect of formulated fipronil on vigour; assay type: in vivo; conditions: result in words
Method: Greenhouse test with sugarcane buds growing in pots were conducted to study the effect of fipronil equivalent to an application rate of 200 g. ha^−1 on “vigour”, evaluating tillers, plant height, leaf width and culm diameter on sugar cane Variety RB 86-7515.
Twenty 1 L pots were filled with 16 L of clay soil, 1.6 L of sand and 8 g of nitrogen, 28 g of phosphorus (P2O5) and 16 g of potassium (K2O). Six carretels of 4 cm length with one bud were planted in each pot (treatments 1, 2, 4 and 5). Two stalks with three buds were planted in each control pot (treatments 3 and 6) to simulate conventional planting. A layer of 3 cm of soil was used to cover the carretels. The carretels of treatments 1 and 2 were treated with 200 g ai·ha^−1 of fipronil, by dipping the carretels in the slurry for 3 min, based on the uptake capacity of carretels. The stalks were treated simulating a furrow application at 100 L·ha^−1 of slurry. Experimental design adopted was randomized complete block with four replications. The pots were maintained with adequate moisture during the test. Evaluations of: plant height, leaf width, culm diameter and number of tillers were done at 20, 30 and 42 days after planting.

[2] = tested on: sugarcane Variety RB 86-7515; experiment: Greenhouse pot test: effect of formulated thiamethoxam on vigour; assay type: in vivo, sugar cane; conditions: result in words
Method: This trial was conducted on Variety RB 86-7515.

[3] = tested on: sugar cane Variety RB 86-7515; experiment: Greenhouse pot test: effect of formulated abamectin on vigour; assay type: in vivo; conditions: Carretel with one bud; 100 g ai/ha; 42 days after planting
Method: Greenhouse test with sugarcane buds growing in pots were conducted to study the effect of formulated abamectin regarding “vigour”, tillers, plant height, leaf width and culm diameter on sugar cane Variety RB 86-7515.
Twenty 1 L pots were filled with 16 L of clay soil, 1.6 L of sand and 8 g of nitrogen, 28 g of phosphorus (P2O5) and 16 g of potassium (K2O). Six carretels of 4 cm length with only one bud were planted in each pot (treatments 1, 2, 4 and 5). Two stalks with three buds were planted in each control pot (treatments 3 and 6) to simulate conventional planting. A layer of 3 cm of soil was used to cover the carretels. The carretels of treatments 1, 2 were treated with 200 ml/ha of abamectin, by dipping the carretels in the slurry for 3 min, based on the uptake capacity of carretels. The stalks were treated simulating a furrow application at 100 L·ha^−1 of slurry. Experimental design adopted was randomized complete block with four replications. The pots were maintained with adequate moisture during the test. Evaluations of: plant height, leaf width, culm diameter and number of tillers were done at 20, 30 and 42 days after planting.

Compound: N#Cc1nn(-c2c(Cl)cc(C(F)(F)F)cc2Cl)c(N)c1[S+]([O-])C(F)(F)F (centres unmarked) [Fipronil, fipronil]
- height of the resultant plants in comparison with the control [1]: decreased the height

Compound: CN1COCN(Cc2cnc(Cl)s2)/C1=N\[N+](=O)[O-] [Thiamethoxam, thiamethoxam]
- number of tillers in comparison with the corresponding controls ([2]; carretels): increased number of tillers
- plant height in comparison with the corresponding controls ([2]; carretels): reduced plant height
- “quality” compared with the other treatments ([2]; overall assessment, not apparent from the listed parameters): increase in “quality” greater than the other treatments

Compound: abamectin
- Tillers [3]: 14 number
